Several values for one entry are separate records, joined by “and”; a condition that tells them apart may be missing. Equal entries are not always repeated. Where two headings read alike, the source gives them in different places.
Experiments:
recombinant BRD4 BD1 = target: T1, recombinant BRD4 BD1 (Homo sapiens, UniProt O60885); assay: Competitive fluorescence-polarization (FP) binding assay, BRD4 BD1; conditions: FP competitive binding; protein 10 nM, probe 1.5 nM; read-out: IC50 (nM) BRD4 BD1
T1 construct: recombinant BRD4 BD1 and BRD4 BD2 proteins
Experimental: Fluorescence Polarization (FP) competitive binding studies were carried out using a FAM labeled fluorescent probe, see Cpd. […] Equilibrium dissociation constants (Kd) values of the fluorescent probe to BRD4 BD1 and BD2 proteins were determined from protein saturation experiments by monitoring the total fluorescence polarization of mixtures composed with the fluorescent probe at a fixed concentration and proteins with increasing concentrations up to full saturation. […] Plates were incubated at room temperature for 30 minutes with gentle shaking to assure equilibrium.
The IC50 and Ki values of compounds were determined in a competitive binding experiment. […] Mixtures of 10 μl of the tested compounds in assay buffer with 40% Ethylene Glycol and 190 μl of preincubated protein/probe complex solution in the assay buffer (100 mM potassium phosphate, pH 6.5, 0.01% Triton X-100) were added into assay plates which were incubated at room temperature for 30 minutes with gentle shaking. Final concentrations of proteins were 10 and 6 nM in assays for BRD4 BD1 and BD2, respectively. […] FP values were measured as described above. IC50 values were determined by nonlinear regression fitting of the competition curves.

recombinant BRD4 BD2 = target: T2, recombinant BRD4 BD2 (Homo sapiens, UniProt O60885); assay: Competitive fluorescence-polarization (FP) binding assay, BRD4 BD2; conditions: protein 6 nM, probe 1.5 nM
T2 construct: recombinant BRD4 BD1 and BRD4 BD2 proteins

RS4-11 = assay: Cell growth inhibition, 4-day proliferation assay, RS4-11; type: cell-based; conditions: 4 days incubation, RS4-11 cells, read-out: Cell Viability (IC50, μM) RS4-11
Experimental: (§1) The effect of representative Compounds of the Disclosure on cell viability was determined in a 4-day proliferation assay. Cells were maintained in the appropriate culture medium with 10% FBS at 37° C. and an atmosphere of 5% CO2. All the cell lines were used within three months of thawing fresh vials.
(§2) Cells were seeded in 96-well flat bottom (Corning COSTAR, Corning, N.Y., cat #3595) or white opaque cell culture plates (BD Falcon, cat #353296) at a density of 3,000-10,000 cells/well in 75 μl of culture medium. Compounds were serially diluted in the appropriate medium, and 75 μl of the diluted compounds were added to the appropriate wells of the cell plate. After the addition of compounds, the cells were incubated at 37° C. in an atmosphere of 5% CO2 for 4 days. Cell viability was determined using the CellTiter-Glo® Luminescent Cell Viability Assay Kit (Promega, Madison, Wis.) for leukemia cells and WST (2-(2-methoxy-4-nitrophenyl)-3-(4-nitrophenyl)-5-(2,4-disulfophenyl)-2H-tetrazolium, monosodium salt) Cell Counting-8 Kit (Dojindo Molecular Technologies, Inc., Rockville, Md.) for adhenrent cells according to the manufacturers' instructions. […]
(§3) For CellTiter-Glo assay (suspension cells), 100 μl of CellTiter-Glo® Reagent was added to each well, and then the plates were incubated at room temperature for 10-20 minutes. The luminescent signal was measured using a Tecan Infinite M1000 multimode microplate reader (Tecan, Morrisville, N.C.). The readings were normalized to the DMSO-treated cells and the IC50 was calculated by nonlinear regression (four parameters sigmoid fitted with variable slope, least squares fit, and no constraint) analysis using the GraphPad Prism 5 software. See US 2014/0256706.

MOLM-13 = assay: Cell growth inhibition, 4-day proliferation assay, MOLM-13; type: cell-based; conditions: 4 days incubation, MOLM-13 cells, read-out: Cell Viability (IC50, μM) MOLM-13
Experimental: as §1, §2, §3

IC50 (recombinant BRD4 BD1) | IC50 (recombinant BRD4 BD2) | IC50 (RS4-11) [µM] | IC50 (RS4-11; Homo sapiens, RS4-11, 96 h) [µM] | IC50 (MOLM-13) [µM] | IC50 (MOLM-13; Homo sapiens, MOLM-13, 96 h) [µM] | SMILES
7.3 nM and 8.1 nM | 48.3 nM and 60.3 nM | 0.12 | 0.14 | 0.1 | 0.16 | Cc1nnc2n1-c1sc(C#Cc3cnn(C)c3)c(Cc3ccccc3)c1CO[C@H]2C [Cpd. No. 85, (S)-3-benzyl-6,9-dimethyl-2-((1-methyl-1H-pyrazol-4-yl)ethynyl)-4,6-dihydrothieno[2,3-e][1,2,4]triazolo[3,4-c][1,4]oxazepine]
8.7 nM | 315 nM | – | 0.62 | – | 0.28 | Cc1nnc2n1-c1sc(C#Cc3ccc(N)nc3)c(Cc3ccccc3)c1COC2 [Cpd. No. 89, 5-((3-benzyl-9-methyl-4,6-dihydrothieno[2,3-e][1,2,4]triazolo[3,4-c][1,4]oxazepin-2-yl)ethynyl)pyridin-2-amine]
115 nM and 70.4 nM | 213 nM | 0.95 | 1 | 0.67 | 1.1 | Cc1sc2c(c1Cc1ccc(F)cc1)COCc1nnc(C)n1-2 [Cpd. No. 103, 3-(4-fluorobenzyl)-2,9-dimethyl-4H,6H-thieno[2,3-e][1,2,4]triazolo[3,4-c][1,4]oxazepine]
99.6 nM and 93.8 nM | 125 nM and 120 nM | – | 1 | 0.81 | 1.1 | Cc1sc2c(c1Cc1ccccc1)COC(C)c1nnc(C)n1-2 (stereo not shown) [Cpd. No. 109, 3-benzyl-2,6,9-trimethyl-4H,6H-thieno[2,3-e][1,2,4]triazolo[3,4-c][1,4]oxazepine]
634 nM | 2320 nM | – | 3.5 | – | 3.8 | Cc1nnc2n1-c1sc(C#N)c(Cc3ccccc3)c1COC2 [Cpd. No. 110, 3-benzyl-9-methyl-4H,6H-thieno[2,3-e][1,2,4]triazolo[3,4-c][1,4]oxazepine-2-carbonitrile]

From patent US11548899B2, “Fused 1,4-oxazepines and related analogs as BET bromodomain inhibitors” (THE REGENTS OF THE UNIVERSITY OF MICHIGAN, priority 2016, dated 2023)
